Publication PMC9822021, “Biological Activity of Amidino-Substituted Imidazo [4,5-b]pyridines” (Molecules, 2022)
In brackets after ≈: the same amount, converted by molar mass.

Key:
S. aureus ATCC 29213 = assay: Antibacterial activity in vitro, broth microdilution; type: cell-based; details: Staphylococcus aureus, ATCC29213; broth microdilution (CLSI), 16–24 h at 37 °C
Method: (§1) Synthesized compounds were prepared as 10 mM DMSO solutions and tested in a final concentration range of 100–0.2 µM [34].
(§2) Broth microdilution testing was performed according to CLSI (Clinical Laboratory Standards Institute) guidelines. MIC (minimal inhibitory concentration) values were defined as the last tested concentration of the compound at which there was no visible growth of bacteria. Inoculums for each microorganism were prepared using the direct colony suspension method, where broth solutions that achieved turbidity equivalent to 0.5 McFarland standard were additionally diluted 100× with Ca-adjusted MH media (Becton Dickinson).

E. coli ATCC 25922 = assay: as above; type: cell-based; details: Escherichia coli, ATCC25922; broth microdilution (CLSI), 16–24 h at 37 °C
Method: as §1, §2

S. Pneumoniae ATCC 49619 = assay: as above; type: cell-based; details: Streptococcus pneumoniae, ATCC49619; broth microdilution (CLSI), 16–24 h at 37 °C
Method: as §1, §2

E. coli Efflux Del = assay: microbe, parasite or virus in culture; type: cell-based; details: Escherichia coli, read-out: MIC E. coli Efflux Del
Method: as §1, §2

in vitro [1] = details: dog
in vitro [2] = details: human
[3] = tested on: HL-60 acute myeloid leukemia cells; assay: In vitro antiproliferative activity, MTS proliferation assay; type: cell-based; details: Homo sapiens, 72 h
Method: (§3) Culture media were purchased from Gibco Life Technologies, USA, and supplemented with 10% fetal bovine serum (HyClone, GE Healthcare Life Sciences, Chicago, IL, USA), except for the media for SW620, PC3 and HeLa cells, which were purchased from Sigma.
(§4) Cells were incubated for 72 h with compounds and were then analyzed using the CellTiter 96® AQueous One Solution Cell Proliferation Assay (MTS) reagent (Promega) according to the manufacturer’s instructions. […] Compounds were tested in two independent experiments. SW620, PC3 and HeLa cells were seeded in 96-well microtiter plates at 1 × 10^4 to 3 × 10^4 cells/mL, depending on the doubling times of the specific cell line. Test agents were then added in five 10-fold dilutions (10^−8 to 10^−4 M). Working dilutions were freshly prepared on the day of testing. After 72 h of incubation, the cell growth rate was evaluated using the MTT assay as described previously. […] Each test was performed in quadruplicate in at least two individual experiments.

[4] = tested on: Capan-1 pancreatic adenocarcinoma cells; assay: as above; type: cell-based; details: Homo sapiens, 72 h
Method: as §3, §4

[5] = tested on: DND-41 acute lymphoblastic leukemia cells; assay: as above; type: cell-based; details: Homo sapiens, DND41, 72 h
Method: as §3, §4

[6] = tested on: Z-138 non-Hodgkin lymphoma cells; assay: as above; type: cell-based, human; details: Homo sapiens, Z-138, 72 h
Source text: (§5) Human cancer cell lines used in this manuscript, namely Capan-1, HCT-116, NCI-H460, LN-229, HL-60, K-562, Z-138, SW620, PC3 and HeLa, were acquired from the American Type Culture Collection (ATCC, Manassas, VA, USA), while the DND-41 cell line was purchased from the Deutsche Sammlung von Mikroorganismen und Zellkulturen (DSMZ Leibniz-Institut, Germany). Culture media were purchased from Gibco Life Technologies, USA, and supplemented with 10% fetal bovine serum (HyClone, GE Healthcare Life Sciences, Chicago, IL, USA), except for the media for SW620, PC3 and HeLa cells, which were purchased from Sigma.
(§6) Adherent cell lines LN-229, HCT-116, NCI-H460 and Capan-1 cells were seeded at a density between 500 and 1500 cells per well in 384-well tissue culture plates (Greiner). […]. Cells were incubated for 72 h with compounds and were then analyzed using the CellTiter 96® AQueous One Solution Cell Proliferation Assay (MTS) reagent (Promega) according to the manufacturer’s instructions. Absorbance of the samples was measured at 490 nm using a SpectraMax Plus 384 (Molecular Devices), and OD values were used to calculate the 50% inhibitory concentration (IC50). Compounds were tested in two independent experiments. SW620, PC3 and HeLa cells were seeded in 96-well microtiter plates at 1 × 10^4 to 3 × 10^4 cells/mL, depending on the doubling times of the specific cell line. Test agents were then added in five 10-fold dilutions (10^−8 to 10^−4 M). Working dilutions were freshly prepared on the day of testing. After 72 h of incubation, the cell growth rate was evaluated using the MTT assay as described previously. Absorbance of the samples was measured at 570 nm, and OD values were used to calculate the 50% inhibitory concentration (IC50). Each test was performed in quadruplicate in at least two individual experiments.

[7] = tested on: LN-229 glioblastoma cells; assay: as above; type: cell-based; details: Homo sapiens, 72 h
Source text: as §5, §6

[8] = tested on: HCT-116 colorectal carcinoma cells; assay: as above; type: cell-based; details: Homo sapiens, 72 h
Source text: as §5, §6

[9] = tested on: K-562 chronic myeloid leukemia cells; assay: as above; type: cell-based; details: Homo sapiens, K562, 72 h
Source text: as §5, §6

[10] = tested on: NCI-H460 lung carcinoma cells; assay: as above; type: cell-based; details: Homo sapiens, 72 h
Source text: as §5, §6

[11] = tested on: SW620 colon carcinoma cells; assay: In vitro antiproliferative activity, MTT assay; type: cell-based; details: Homo sapiens, SW-620, 72 h
Source text: as §5, §6

[12] = tested on: HeLa cervical carcinoma cells; assay: In vitro antiproliferative activity, MTT assay; type: cell-based; details: Homo sapiens, 72 h
Source text: as §5, §6

[13] = tested on: PC3 prostate carcinoma cells; assay: In vitro antiproliferative activity, MTT assay; type: cell-based; details: Homo sapiens, 72 h
Source text: as §5, §6

in vitro [14] = details: human; remark: listed apart in the source

Row | Structure (SMILES) | MIC (S. aureus ATCC 29213) | MIC (E. coli ATCC 25922) | MIC (S. Pneumoniae ATCC 49619) | MIC (E. coli Efflux Del) | CC50 (in vitro [1]) | CC50 (in vitro [2]) | IC50 [3] | IC50 [4] | IC50 [5] | IC50 [6] | IC50 [7] | IC50 [8] | IC50 [9] | IC50 [10] | IC50 [11] | IC50 [12] | IC50 [13] | CC50 (in vitro [14]) | melting point
1 | CC1(C)S[C@@H]2[C@H](NC(=O)[C@H](N)c3ccccc3)C(=O)N2[C@H]1C(=O)O [Ampicillin, ampicillin, reference compound] | 1 µM (≈ 0.349 µg/mL) | 1 µM (≈ 0.349 µg/mL) | < 0.125 µM |  |  |  |  |  |  |  |  |  |  |  |  |  |  |  | 
2 | CC(C)(O/N=C(\C(=O)N[C@@H]1C(=O)N2C(C(=O)[O-])=C(C[n+]3ccccc3)CS[C@H]12)c1csc(N)n1)C(=O)O [Ceftazidime, ceftazidime, reference compound] | 16 µM (≈ 8.75 µg/mL) | 0.25 µM (≈ 0.137 µg/mL) | 0.25 µM (≈ 0.137 µg/mL) | 0.25 µM (≈ 0.137 µg/mL) |  |  |  |  |  |  |  |  |  |  |  |  |  |  | 
3 | N#Cc1ccc(-c2nc3ncccc3[nH]2)cc1 [Compound 6, 4-(1H-Imidazo[4,5-b]pyridin-2-yl)benzonitrile] | > 64 µM | > 64 µM | > 64 µM | > 64 µM | > 100 µM | > 100 µM | > 100 µM | > 100 µM | > 100 µM | > 100 µM | > 100 µM | > 100 µM | > 100 µM | > 100 µM | > 100 µM | 28.9 ± 7.2 µM | > 100 µM | > 100 µM | 
4 | Cl.N=C(N)c1ccc(-c2nc3ncccc3[nH]2)cc1 [Compound 9, 4-(1H-Imidazo[4,5-b]pyridin-2-yl)benzimidamide Hydrochloride] | > 64 µM | > 64 µM | > 64 µM | > 64 µM | > 100 µM | > 100 µM | > 100 µM | > 100 µM | > 100 µM | > 100 µM | > 100 µM | > 100 µM | > 100 µM | > 100 µM | > 100 µM | > 100 µM | > 100 µM | > 100 µM | > 300 °C
5 | Cl.c1cnc2nc(-c3ccc(C4=NCCCN4)cc3)[nH]c2c1 [Compound 12, 2-(4-(1H-Imidazo[4,5-b]pyridin-2-yl)phenyl)-3,4,5,6-tetrahydropyrimidin-1-ium Chloride] | > 64 µM | > 64 µM | > 64 µM | > 64 µM | > 100 µM | > 100 µM | > 100 µM | > 100 µM | > 100 µM | > 100 µM | > 100 µM | > 100 µM | > 100 µM | > 100 µM | > 100 µM | > 100 µM | > 100 µM | > 100 µM | > 300 °C
6 | CC(C)NC(=N)c1ccc(-c2nc3ncc(Br)cc3[nH]2)cc1.Cl [Compound 16, 4-(6-Bromo-1H-imidazo[4,5-b]pyridin-2-yl)-N-isopropylbenzimidamide Hydrochloride] | > 64 µM | > 64 µM | > 64 µM | > 64 µM | 71.2 ± 40.8 µM |  | 91.4 ± 5.1 µM | 52.7 ± 2.9 µM | 11.9 ± 0.1 µM | 12.1 ± 0.8 µM | 52.4 ± 8.1 µM | 77.2 ± 19.1 µM | 53.6 ± 2.8 µM | > 100 µM | 7.4 ± 1.1 µM | 13.3 ± 4.3 µM | 13.3 ± 2.6 µM |  | > 300 °C
7 | CC(=O)O[C@@]12CO[C@@H]1C[C@H](O)[C@@]1(C)C(=O)[C@H](O)C3=C(C)[C@@H](OC(=O)[C@H](O)[C@@H](NC(=O)OC(C)(C)C)c4ccccc4)C[C@@](O)([C@@H](OC(=O)c4ccccc4)[C@H]21)C3(C)C [DTX, docetaxel, reference compound] |  |  |  |  |  |  | 0.0022 µM | 0.0038 ± 0.003 µM | 0.0025 µM | 0.0023 µM | 0.0041 ± 0.003 µM | 0.0025 µM | 0.0085 ± 0.001 µM | 0.0034 µM |  |  |  |  | 
8 | C[C@@H](O)[C@H]1C(=O)N2C(C(=O)O)=C(S[C@@H]3CN[C@H](C(=O)N(C)C)C3)[C@H](C)[C@H]12 [Meropenem, meropenem, reference compound] | < 0.125 µM | < 0.125 µM | < 0.125 µM | < 0.125 µM |  |  |  |  |  |  |  |  |  |  |  |  |  |  | 
9 | CN[C@@H]1C[C@H]2O[C@@](C)([C@@H]1OC)n1c3ccccc3c3c4c(c5c6ccccc6n2c5c31)C(=O)NC4 [STS, staurosporine, reference compound] |  |  |  |  |  |  |  |  |  | 0.0484 ± 0.007 µM | 0.0668 ± 0.016 µM | 0.0701 ± 0.006 µM | 0.0374 ± 0.006 µM | 0.0448 ± 0.004 µM |  |  |  |  | 
10 | COc1cccc2c1C(=O)c1c(O)c3c(c(O)c1C2=O)C[C@@](O)(C(=O)CO)C[C@@H]3O[C@H]1C[C@H](N)[C@H](O)[C@H](C)O1 [doxorubicine, reference compound] |  |  |  |  |  |  |  |  |  |  |  |  |  |  | 0.02 µM | 0.16 ± 0.05 µM | 0.13 ± 0.02 µM |  | 
11 | COc1cc([C@@H]2c3cc4c(cc3[C@@H](O[C@@H]3O[C@@H]5CO[C@@H](C)O[C@H]5[C@H](O)[C@H]3O)[C@H]3COC(=O)[C@H]23)OCO4)cc(OC)c1O [etoposide, reference compound] |  |  |  |  |  |  |  |  |  |  |  |  |  |  | 0.63 ± 0.1 µM | 0.004 ± 0.001 µM | 11.6 ± 1.9 µM |  | 
